For series [1], the target named is T1, BrlR (Pseudomonas aeruginosa, UniProt Q9HUT5).
T1 construct: His6-SUMO (N, cleaved yes); made in house; host or cells: E. coli BL21 DE3
Description: Fluorescence polarization (FP) binding assay, wild-type BrlR. The settings on record: 1 nM fluorescent ligand, 25 °C. From the text: The most striking feature of the BrlR–c-di-GMP complex is the c-di-GMP-binding mode. The DNA-binding domain contains two separate c-di-GMP-binding sites, and shares a mutually intercalated c-di-GMP dimer in a stacking conformation with a crystallographic symmetry related binding site (Fig. 2a–c). […] The interactions stabilizing the c-di-GMPs are different for the two binding sites (Fig. 2d, e, and details are described in Supplementary Note 1). […] This structural feature allows us to perform fluorescence polarization (FP)-based binding assays[19],[23],[24] by using a fluoresceinated c-di-GMP analog, 2′-Fluo-AHC-c-di-GMP (F-c-di-GMP), containing a fluorophore attached to one of the 2′-ribose hydroxyls (Fig. 2f).
F-c-di-GMP and F-c-di-AMP both contain a fluorophore at one of the 2′-ribose hydroxyls of c-di-GMP and c-di-AMP, respectively (Fig. 2f). To measure the binding of c-di-GMP and c-di-AMP to BrlR variants, 1 nM F-c-di-GMP or F-c-di-AMP was incubated with increasing amounts of indicated BrlR WT, BrlR mutation, or BrlR-C in reaction buffer (25 mM HEPES, 100 mM NaCl, pH 7.5) at 25 °C for 20 min. 1 nM fluorescein was incubated with BrlR WT in the same reaction buffer at 25 °C. FP measurements were conducted on a Synergy 4 Microplate Reader (BioTek) at 25 °C. All experiments were performed in triplicate. The curves were fitted to deduce binding affinities by GraphPad Prism 5.
In general terms: Polarisation of emitted light reports the rotation of a fluorescent probe.

Series [2] deals with T1, BrlR. Briefly: Surface plasmon resonance (SPR) analysis. The class given is binding. As to conditions: SPR, immobilized BrlR; for Kd: steady state, 25 °C. The method, then: The binding affinity of diverse toxic compounds for BrlR were investigated by SPR using a BIAcore-T200 apparatus (GE Healthcare). The ligand, BrlR (20 μM in 10 mM sodium acetate, pH 4.5), was immobilized on an activated CM5 sensor chip by amine coupling (BIAcore) with 4400 response units (RU), and the unreacted sites were blocked with 1.0 M ethanolamine–HCl (pH 8.5). Steady-state binding analysis was performed with injections of different molecules at different concentrations over the immobilized BrlR surface at a flow rate of 20 μL min^−1 at 25 °C. Association was measured for 180 s, followed by 120 s of dissociation in running buffer (20 mM Hepes pH 7.5, 150 mM NaCl). The sensorgrams for specific interactions were obtained by subtracting the reference unimmobilized flow cell response from that of the sample. Since BrlR only has one binding site for pyocyanin or other toxic compounds (Fig. 5a–f), the kinetic analysis of the sensorgrams from analyte interaction with the immobilized BrlR was performed by fitting the binding curves to a 1:1 binding model. To determine the steady state KD values, equilibrium responses were plotted against analyte concentrations, and the resulting curves were fitted to the steady state model in the BIAevaluation software package, version 3.0 (GE Healthcare).
On the technique in general: Surface plasmon resonance follows binding to a sensor surface in real time, without labels.

Another series deals with T2, BrlR-DNA binding (PbrlR) (Pseudomonas aeruginosa, UniProt Q9HUT5).
T2 construct: His6-SUMO (N, cleaved yes); made in house; host or cells: E. coli BL21 DE3
Description: EMSA, wild-type BrlR with PbrlR DNA. The class given is biochemical. As to conditions: wild-type BrlR, increasing concentrations of compound. The method, then:
A 6-carboxy-fluorescein (FAM)-labeled 36-bp brlR promoter DNA (PbrlR) or 80-bp mexA/mexE promoter DNA (PmexA/PmexE) probes (~0.375 pmol), BrlR protein and varying amounts of inducers were incubated in binding buffer (10 mM Tris HCl [pH 7.4], 50 mM KCl, 1 mM DTT, […] and 5 ng/mL poly [dI-dC]) for 60 min at 25 °C. Finally, glycerol was added to a concentration of 6.5%. The samples were subjected to a 5% polyacrylamide gel electrophoresis and run in 0.5 × Tris-borate-EDTA buffer at 80 V for 1 h at room temperature. Imaging and data analyses were performed using a Typhoon Scanner (GE Healthcare) and Imagequant software. The probes used are listed in Supplementary Table 1.
(Mobility shift assays separate free from complexed probe on a gel.)

In the next series the test system is brlR transcription. Briefly: qRT-PCR of brlR transcript. The class given is cell-based, P. aeruginosa PAO1. The settings on record: ΔphzMSH strain still produces PCA; strain PAO1. As for the experimental part: PAO1 WT strains were grown under different conditions. For c-di-GMP effects, overexpression of PA4843 in PAO1 (PAO1/pHERD20T-PA4843) relative to WT cells (PAO1/ pHERD20T) was determined. When P. aeruginosa strains entered mid-log phase, arabinose was added to induce gene expression. To test pyocyanin’s effect, a P. aeruginosa PAO1 WT strain cells with high pyocyanin production was determined relative to a ΔphzA1-G1/phzA2-G2 strain not producing phenazine and a ΔphzMSH strain not producing pyocyanin.
Total RNA was extracted using a MiniBEST Universal RNA Extraction Kit (TaKaRa) and cDNA synthesis was performed using a PrimeScript RT reagent Kit (TaKaRa). Primers for RT-PCR listed in Supplementary Table 1 were designed using the program PrimerExpress (Applied Biosystems). The RT-PCR reactions were performed on a CFX96 Real-Time PCR Detection System (Bio-Rad) using SYBR Premix Ex Taq™ (TaKaRa). Expression of the target genes was normalized to the expression of 16 S RNA. The relative transcript abundance was calculated according to the 2^−ΔΔCt method. Five biological replicates were performed per sample. The data were analyzed with a one-tailed t-test (***P ≤ 0.001).

For the next series, the system named is P. aeruginosa PAO1. Briefly: Planktonic antibiotic susceptibility testing, PAO1. The class given is cell-based, Pseudomonas aeruginosa. As to conditions: for decrease of CFU number (log reduction): PAO1, 50 μg/ml tobramycin 1 h; for reduction in CFU number: cells harboring pHERD20T-PA2133 (low c-di-GMP), 50 μg/ml tobramycin 1 h. The method, then:
To determine the role of pyocyanin in antimicrobial susceptibility, P. aeruginosa strains (Supplementary Table 2) were grown at 37 °C in 20-fold diluted LB medium supplemented with or without 0.2 mM pyocyanin, which was purified from stationary phase cultures of PAO1. Tobramycin was added to the mid-log phase (OD600 = 0.8) cells suspension to a final concentration of 50 μg/ml; after 1 h, the broth was serially diluted and spread-printed onto LB agar (medium containing 300 μg/ml carbenicillin was used for the cells harboring plasmid) to determine the cell viability via CFU counts. The cell suspensions without tobramycin were set as controls. Susceptibility is expressed as a logarithmic reduction in CFU amount. The data were analyzed with a one-tailed t-test (***P ≤ 0.001).

The target of a further series is T3, BrlR-C (Pseudomonas aeruginosa, UniProt Q9HUT5).
T3 construct: His6 (cleaved yes); made in house; host or cells: E. coli (same protocol as BrlR, induction at 18 °C)
Briefly: FP competition experiment, BrlR-C. The settings on record: 550 μM BrlR-C, 1 nM F-c-di-GMP. The class given is binding. As for the experimental part: Supplementary Figure 11: FP analyses of F-c-di-GMP binding to BrlR-C. (a) Isotherms of BrlR-C binding to F-c-di-GMP. The binding experiment was carried out at 25 °C in a buffer containing 150 mM NaCl, 25 mM Tris·HCl (pH 7.5), and 1 nM F-c-di-GMP. Increasing concentrations of BrlR-C were titrated into the reaction mixture to obtain the binding isotherms. (b) Fluorescence polarization competition experiment of BrlR-C. As a control, 550 μM BrlR-C was added to the reaction tube containing 1 nM F-c-di-GMP, and different competitors were respectively added in the solution and the values of millipolarization were recorded.
(1 picture or pasted object on this page, not shown here)

Series [3] concerns the target T4, BrlR (UniProt Q9HUT5 1-270).
T4 sequence: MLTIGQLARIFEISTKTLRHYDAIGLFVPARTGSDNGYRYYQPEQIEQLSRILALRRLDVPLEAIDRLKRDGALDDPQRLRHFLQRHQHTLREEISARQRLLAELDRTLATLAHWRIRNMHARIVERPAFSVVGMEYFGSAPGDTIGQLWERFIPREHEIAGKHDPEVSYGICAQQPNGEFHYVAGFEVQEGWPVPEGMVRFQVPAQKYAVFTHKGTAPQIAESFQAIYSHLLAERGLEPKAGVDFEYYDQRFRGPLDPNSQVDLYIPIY
Description: EMSA; pyocyanin (enhances). As to conditions: protein: recombinant; tags: none (His6-SUMO removed); chain copies: 4; label: 5' FAM on strand 1; blunt.

Series [4] deals with the molecule itself. Briefly: crystal structure; apo-BrlR, 3.1 Å, space group P65, four BrlR molecules in the asymmetric unit; crystals from 1.8 M sodium acetate pH 7.0, 0.1 M Bis-Tris propane pH 7.0, 20 °C.

For the molecule `O=C1OC2(c3ccc(O)cc3Oc3cc(O)ccc32)c2ccccc21` [fluorescein], at BrlR [1], the Kd (commonly the concentration at which binding is half-saturated) was 33.6 ± 1.6 µM.
`CNC(C)C1CCC(N)C(OC2C(N)CC(N)C(OC3OCC(C)(O)C(NC)C3O)C2O)O1` (centres unmarked) [Gentamicin] returned a Kd at BrlR [2] of approximately 470 µM.
As for `Nc1ncnc2c1ncn2[C@@H]1O[C@@H]2COP(=O)(O)O[C@H]3[C@@H](O)[C@H](n4cnc5c(N)ncnc54)O[C@@H]3COP(=O)(O)O[C@H]2[C@H]1O` [c-di-AMP], at BrlR-DNA binding (PbrlR), the “effect on BrlR-PbrlR DNA binding (in words)” value is reported as “significantly promoted”.
Consider `CN(C)[C@@H]1C(O)=C(C(N)=O)C(=O)[C@@]2(O)C(O)=C3C(=O)c4c(O)cccc4[C@@](C)(O)[C@H]3C[C@@H]12` [tetracycline], for which the “binding to BrlR in SPR (in words)” value at BrlR [2] is reported as “signals were not sufficiently high”.
Same read-out and setting: for `CCn1cc(C(=O)O)c(=O)c2cc(F)c(N3CCNCC3)cc21` [norfloxacin] the value was “signals were not sufficiently high”.
Still for that read-out and setting: for `Nc1ncnc2c1ncn2[C@@H]1O[C@H](COP(=O)(O)O)[C@@H](O)[C@H]1O` [AMP] the value was “does not bind”.
Regarding `O=C(O)c1cccc2nc3ccccc3nc12` [PCA, phenazine-1-carboxylic acid], the “effect on brlR transcription” value in the series with brlR transcription was “could not up-regulate”.
For `NC[C@H]1O[C@H](O[C@H]2[C@H](O)[C@@H](O[C@H]3O[C@H](CO)[C@@H](O)[C@H](N)[C@H]3O)[C@H](N)C[C@@H]2N)[C@H](N)C[C@@H]1O` [tobramycin], the Kd at BrlR [2] was 640 µM. Further, the “decrease of CFU number (log reduction)” value with P. aeruginosa PAO1 (absence of pyocyanin) is on record as ~ 3.4 order of magnitude; with P. aeruginosa PAO1 (presence of 0.2 mM pyocyanin), ~ 1.5 order of magnitude. Besides, the “reduction in CFU number” value with P. aeruginosa PAO1 (with addition of pyocyanin) is 1.7 order of magnitude; with P. aeruginosa PAO1 (without pyocyanin), 4.3 order of magnitude. Also, the “effect on BrlR-PbrlR DNA binding (in words)” value on BrlR-DNA binding (PbrlR) is “did not result in an observable difference”. Further, the “competition with F-c-di-GMP binding to BrlR-C” value on BrlR-C is given as “outcompeted”.

B1: PmexA (dsDNA)
DNA 1: ACACCTATGAATGTAAGTATTTTGCCTGCCTTCTTCGAGCCGGTGCAGCGCCTTCACGCTGCATCGGCCGCTTTCGCT
DNA 2: AGCGAAAGCGGCCGATGCAGCGTGAAGGCGCTGCACCGGCTCGAAGAAGGCAGGCAAAATACTTACATTCATAGGTGT
B1: in the series with BrlR [3], the binding result is “binds”.

B2: BrlR (PA4878) (natural protein)
chain: T4 sequence
notes: also called apo-BrlR; BrlR WT; source: E. coli BL21 DE3, purified (Ni-NTA, tag cleaved by UlpI, Source Q, Superdex 200); not shown: His6-SUMO, N-terminal, cleaved
B2: the stoichiometry N (in general, the number of molecules, sites or subunits per partner or assembly) in series [4] turned out to be 4.

B3: PmexE (dsDNA)
DNA 1: AATCTCGTCGTTCGATTAGTTCCCTGCCGGAGCAGCCCGCAGACTTCGCCAATCCCGAAAAACCGACTGGCGGAGT
DNA 2: ACTCCGCCAGTCGGTTTTTCGGGATTGGCGAAGTCTGCGGGCTGCTCCGGCAGGGAACTAATCGAACGACGAGATT
Regarding B3, the binding result in the series with BrlR [3] is “binds”.

Values taken from paper PMC6028453, “BrlR from Pseudomonas aeruginosa is a receptor for both cyclic di-GMP and pyocyanin” (Nature Communications, 2018).
